The target of test [1] is T1, CDK13 kinase domain/CCNK-3xHA (Homo sapiens, UniProt Q14004).
T1 construct: ORFs encoding residues 715–1052 of CDK12 and residues 693–1030 of CDK13; expressed in transfected cells; host or cells: 293T
The experiment in a line: Co-expression of 3xFLAG-CDK13 kinase domain with CCNK-3xHA. To be noted: 293T, HQ461 8 hr; not with G709E or G709R. In kind it is cell-based. The procedure:
ORFs encoding residues 715–1052 of CDK12 and residues 693–1030 of CDK13 were cloned into a pCDNA3.1-N-3xFLAG vector. For setting up cells for co-transfection, 0.6 million 293 T cells were seeded per well in 6-well tissue-culture plates and allowed to attach to plates overnight. These cells were then transfected with 50 ng of pCDNA3.1-3xFLAG-CDK12/13 kinase domain, 50 ng of pCDNA3.1-CCNK-3xHA, and 400 ng of the empty pCDNA3.1 vector. Twenty-four hours post transfection, cells were treated with HQ461 for 8 hr, and lysates were collected for western blotting with anti-FLAG and anti-HA antibodies.

The target in test [2] is T2, 3xFLAG-CDK12/CCNK and DDB1 (Homo sapiens, UniProt Q9NYV4).
T2 construct: A549 3xFLAG-CDK12 knock-in cells were detached from plates by scraping; endogenous in cells; host or cells: A549 3xFLAG-CDK12 knock-in cells (lysate)
The experiment in a line: Co-immunoprecipitation of CCNK and DDB1 with 3xFLAG-CDK12 complex. To be noted: A549 3xFLAG-CDK12 knock-in lysates. In kind it is binding. The procedure:
Anti-FLAG M2 antibody (Sigma-Aldrich, MO, USA F3165) was coupled to magnetic epoxy beads (Beijing Yunci Technology Co., Beijing, China) at the ratio of 10 μg of anti-FLAG antibody/mg of beads in the presence of 1 M ammonium acetate and 0.1 M sodium phosphate, pH 7.4 at 37°C overnight. A549 3xFLAG-CDK12 knock-in cells were detached from plates by scraping, washed in DPBS, and then frozen in liquid nitrogen. Frozen cells were pulverized using a mixer mill MM 400 (Retsch, Haan, Germany) with two rounds of 1 min ball milling at 30 Hz. Per experiment, 25 mg of grinded cell powder was solubilized with 250 µL of IP buffer (50 mM HEPES, pH 7.4, 300 mM NaCl, 0.1% Tween-20) supplemented with 1x cOmplete, Mini, EDTA-free protease inhibitor cocktail (Roche, Bazel, Switzerland). The resulting lysates were centrifuged at 15,000 g for 10 min at 4°C. Clarified lysates were supplemented with HQ461 or DMSO and incubated at 4°C for 30 min. Afterwards, 0.2 mg of anti-FLAG-conjugated magnetic beads were mixed with clarified lysates for 15 min on a rotating platform at 4°C, followed by three washes with IP buffer supplemented with HQ461 or DMSO. Bound proteins were eluted from magnetic beads with 1 mg/ml of 3 × FLAG peptide (Sigma-Aldrich, MO, USA F4799) with agitation at 4°C for 30 min. Eluted proteins were subjected to SDS-PAGE and western blotting with anti-FLAG-HRP, anti-CCNK, and anti-DDB1. […]

The target in the next test is T3, FLAG-DDB1/CDK12KD/CCNKΔC (Homo sapiens, UniProt Q9NYV4).
T3 construct: Human CDK12KD (residues 715–1052); 6xHis (PreScission site) (N, cleaved yes); made in house; host or cells: Sf9 or High Five (CDK12KD/CCNKΔC, co-infected with yeast CAK1); 293F (FLAG-Avi-DDB1)
The test is described as follows: FLAG-DDB1:CDK12KD/CCNKΔC pull down assay. The format is binding. The procedure: FLAG-Avi-DDB1 (18.2 µg) was mixed with CDK12KD/CCNKΔC (10 µg) at 1:1 molar ratio in 500 μL of pulldown assay buffer containing 50 mM HEPES, pH 7.5, 300 mM NaCl, 0.5 mM TCEP. The protein mix was then supplemented with DMSO or HQ461. After 30 min of incubation on ice, the protein-compound mix was incubated with anti-FLAG M2 affinity gel for another 30 min on a rotator at 4 °C. Protein-bound beads were washed three times with the pulldown assay buffer and bound proteins were eluted with 0.2 mg/mL FLAG peptide. Eluted proteins were analyzed by SDS-PAGE followed by coomassie blue staining.

For test [3], the system named is BRCA1, BRCA2, ATR, ERCC4 mRNA. The experiment in a line: RT-qPCR of BRCA1, BRCA2, ATR and ERCC4 mRNAs. The format is cell-based, Homo sapiens. The method, then:
Total RNA was extracted from HQ461-treated A549 cells using TRNzol (Tiangen, Beijing, China). Reverse transcription of mRNA into cDNA was performed using the 5X All-In-One RT mastermix kit with AccuRT genomic DNA removal kit (Abm, Richmond, Canada), and qPCR was performed using TB Green Premix Ex Taq (Tli RNaseH Plus) (Takara, Otsu, Japan) with the CFX96 Real-Time PCR Detection System (Bio-Rad, Hercules, USA). GAPDH was used for normalization. Primer sequences are as follows: GAPDH-forward: 5’-[…]-3’; GAPDH-reverse: 5’-[…]-3’; BRCA1-forward: 5’-[…]-3’; BRCA1-reverse: 5’-[…]-3’; BRCA2-forward: 5’-[…]-3’; BRCA2-reverse: 5’-[…]-3’; ATR-forward: 5’-[…]-3’; ATR-reverse: 5’-[…]-3’; ERCC4-forward: 5’-[…]-3’; ERCC4- reverse: 5’-[…]-3’. Each experiment was performed with three technical replicates.
On the technique in general: Real-time PCR tracks product formation cycle by cycle.

These results are taken from publication PMC7462607 (eLife, 2020).

T3 sequence (Q9NYV4 715-1052, stated change not applied): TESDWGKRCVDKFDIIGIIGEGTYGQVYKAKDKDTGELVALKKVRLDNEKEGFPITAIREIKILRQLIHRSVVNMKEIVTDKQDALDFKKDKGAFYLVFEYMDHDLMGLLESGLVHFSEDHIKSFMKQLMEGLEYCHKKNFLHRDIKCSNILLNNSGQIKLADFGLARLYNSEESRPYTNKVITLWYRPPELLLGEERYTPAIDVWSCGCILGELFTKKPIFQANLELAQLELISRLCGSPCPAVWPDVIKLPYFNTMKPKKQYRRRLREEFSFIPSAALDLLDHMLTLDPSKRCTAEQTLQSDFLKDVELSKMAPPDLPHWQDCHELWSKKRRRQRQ
T3 sequence (O75909 11-267 partner limits assumed): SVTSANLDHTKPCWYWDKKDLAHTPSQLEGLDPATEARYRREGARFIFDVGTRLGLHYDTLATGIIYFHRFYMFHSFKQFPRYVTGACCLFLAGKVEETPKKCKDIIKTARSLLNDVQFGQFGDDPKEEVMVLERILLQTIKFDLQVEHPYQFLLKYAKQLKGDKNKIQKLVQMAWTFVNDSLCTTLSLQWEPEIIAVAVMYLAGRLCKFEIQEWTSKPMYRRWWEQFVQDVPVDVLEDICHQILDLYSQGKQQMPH
T3 sequence (Q16531 whole entry partner, the tested form may be a part): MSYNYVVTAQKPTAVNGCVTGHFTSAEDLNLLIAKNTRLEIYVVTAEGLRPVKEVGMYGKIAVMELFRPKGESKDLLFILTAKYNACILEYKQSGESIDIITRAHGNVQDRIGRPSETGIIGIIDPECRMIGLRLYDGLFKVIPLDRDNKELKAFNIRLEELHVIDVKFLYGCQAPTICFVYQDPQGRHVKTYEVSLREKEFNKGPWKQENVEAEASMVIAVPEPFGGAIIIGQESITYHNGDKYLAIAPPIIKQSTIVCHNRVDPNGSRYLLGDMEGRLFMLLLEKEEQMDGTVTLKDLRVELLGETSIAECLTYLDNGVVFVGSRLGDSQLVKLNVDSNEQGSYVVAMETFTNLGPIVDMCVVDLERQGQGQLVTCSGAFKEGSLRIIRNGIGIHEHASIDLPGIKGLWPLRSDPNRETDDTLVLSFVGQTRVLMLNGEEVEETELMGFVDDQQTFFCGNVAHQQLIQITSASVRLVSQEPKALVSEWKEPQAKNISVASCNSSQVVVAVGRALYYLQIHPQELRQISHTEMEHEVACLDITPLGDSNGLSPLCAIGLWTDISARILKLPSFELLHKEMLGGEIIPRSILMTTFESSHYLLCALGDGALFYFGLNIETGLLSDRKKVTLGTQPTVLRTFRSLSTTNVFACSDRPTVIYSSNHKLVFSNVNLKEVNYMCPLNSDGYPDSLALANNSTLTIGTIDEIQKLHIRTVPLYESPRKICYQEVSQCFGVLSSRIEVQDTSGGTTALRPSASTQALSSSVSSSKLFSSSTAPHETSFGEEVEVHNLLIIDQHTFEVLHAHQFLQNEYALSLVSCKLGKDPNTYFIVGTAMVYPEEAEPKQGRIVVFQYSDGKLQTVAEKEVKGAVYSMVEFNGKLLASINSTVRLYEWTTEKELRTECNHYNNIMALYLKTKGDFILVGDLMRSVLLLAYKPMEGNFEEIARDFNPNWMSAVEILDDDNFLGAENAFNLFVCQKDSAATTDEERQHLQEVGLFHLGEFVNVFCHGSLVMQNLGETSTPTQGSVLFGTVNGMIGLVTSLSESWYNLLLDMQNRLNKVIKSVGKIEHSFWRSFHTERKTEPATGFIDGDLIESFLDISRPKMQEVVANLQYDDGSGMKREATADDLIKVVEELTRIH
T1 sequence (O75909 whole entry, the tested form may be a part): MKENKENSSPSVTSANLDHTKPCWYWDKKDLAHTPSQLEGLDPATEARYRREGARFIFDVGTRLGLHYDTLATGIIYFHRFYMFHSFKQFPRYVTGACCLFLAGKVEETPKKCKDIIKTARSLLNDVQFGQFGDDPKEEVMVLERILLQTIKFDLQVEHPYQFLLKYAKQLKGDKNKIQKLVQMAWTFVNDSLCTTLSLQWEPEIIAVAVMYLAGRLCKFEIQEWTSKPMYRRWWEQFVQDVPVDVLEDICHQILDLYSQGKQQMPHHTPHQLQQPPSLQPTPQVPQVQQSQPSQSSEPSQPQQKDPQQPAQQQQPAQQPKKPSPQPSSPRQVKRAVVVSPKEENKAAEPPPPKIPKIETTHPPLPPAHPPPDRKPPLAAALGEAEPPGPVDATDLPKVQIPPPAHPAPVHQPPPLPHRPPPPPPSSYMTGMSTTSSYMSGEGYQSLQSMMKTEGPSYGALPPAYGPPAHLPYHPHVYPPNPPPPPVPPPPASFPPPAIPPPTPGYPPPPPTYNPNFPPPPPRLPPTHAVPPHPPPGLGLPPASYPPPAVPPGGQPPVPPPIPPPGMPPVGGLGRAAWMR
T1 sequence (Q14004 693-1030): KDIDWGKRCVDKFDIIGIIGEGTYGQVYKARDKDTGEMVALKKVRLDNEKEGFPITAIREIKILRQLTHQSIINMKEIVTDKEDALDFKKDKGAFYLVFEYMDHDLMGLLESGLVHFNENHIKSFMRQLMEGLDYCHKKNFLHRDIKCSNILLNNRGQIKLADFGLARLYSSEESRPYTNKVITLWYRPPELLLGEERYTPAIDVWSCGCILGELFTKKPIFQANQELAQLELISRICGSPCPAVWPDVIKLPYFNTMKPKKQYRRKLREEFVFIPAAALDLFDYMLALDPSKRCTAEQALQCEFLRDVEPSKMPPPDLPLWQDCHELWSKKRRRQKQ
T1 sequence (Q16531 2-1140, further chain): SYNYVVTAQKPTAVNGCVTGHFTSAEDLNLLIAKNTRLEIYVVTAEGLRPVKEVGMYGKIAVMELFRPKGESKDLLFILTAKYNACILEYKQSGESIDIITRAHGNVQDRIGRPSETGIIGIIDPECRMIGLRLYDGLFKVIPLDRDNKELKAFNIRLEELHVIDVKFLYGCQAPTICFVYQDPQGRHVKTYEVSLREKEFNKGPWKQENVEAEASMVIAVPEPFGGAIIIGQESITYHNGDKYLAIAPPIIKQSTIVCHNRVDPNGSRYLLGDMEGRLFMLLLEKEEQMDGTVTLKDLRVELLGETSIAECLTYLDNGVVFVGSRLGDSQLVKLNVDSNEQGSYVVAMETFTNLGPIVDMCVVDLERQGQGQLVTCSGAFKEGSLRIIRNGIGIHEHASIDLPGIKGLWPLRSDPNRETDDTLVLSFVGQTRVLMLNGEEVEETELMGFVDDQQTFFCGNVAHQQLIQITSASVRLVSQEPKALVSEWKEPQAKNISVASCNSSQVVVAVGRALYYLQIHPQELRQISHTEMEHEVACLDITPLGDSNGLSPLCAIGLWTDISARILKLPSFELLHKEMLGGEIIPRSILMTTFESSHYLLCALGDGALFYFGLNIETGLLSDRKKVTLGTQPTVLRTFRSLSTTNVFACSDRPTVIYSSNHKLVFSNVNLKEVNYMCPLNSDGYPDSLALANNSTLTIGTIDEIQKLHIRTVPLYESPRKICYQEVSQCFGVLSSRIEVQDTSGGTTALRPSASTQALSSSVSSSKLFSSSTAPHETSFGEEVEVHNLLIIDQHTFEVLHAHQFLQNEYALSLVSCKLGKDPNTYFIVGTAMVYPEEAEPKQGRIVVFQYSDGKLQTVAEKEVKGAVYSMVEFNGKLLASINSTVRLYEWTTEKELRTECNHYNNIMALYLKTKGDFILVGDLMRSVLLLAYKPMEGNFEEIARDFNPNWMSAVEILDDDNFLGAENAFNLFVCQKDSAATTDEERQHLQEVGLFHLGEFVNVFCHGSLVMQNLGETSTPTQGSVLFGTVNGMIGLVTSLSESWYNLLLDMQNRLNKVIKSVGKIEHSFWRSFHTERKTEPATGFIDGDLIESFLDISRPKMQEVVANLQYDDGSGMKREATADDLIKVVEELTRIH

Consider `Cc1cccc(Nc2nc(CC(=O)Nc3ncc(C)s3)cs2)n1` [HQ461, 2-(2-((6-methylpyridin-2-yl)amino)thiazol-4-yl)-N-(5-methylthiazol-2-yl)acetamide], for which the “CCNK degradation with co-expressed wild-type CDK13 kinase domain” value in test [1] is listed as “sufficient for mediating HQ461-dependent degradation of CCNK”. Besides, in test [2], the “recruitment of DDB1 to CDK12/CCNK (coimmunoprecipitation)” value is recorded as “DDB1 was only detected with the CDK12/CCNK complex isolated from lysates treated with HQ461”. Moreover, the “complex formation of DDB1 with CDK12KD/CCNKΔC (pulldown)” value at FLAG-DDB1/CDK12KD/CCNKΔC is on record as “near-stoichiometric complex”. Further, in test [3] (A549 with CDK12 G731E or G731R mutation), the “inhibitory effect on the expression of DDR genes” value is “abolished”. Besides, in test [3] (parental A549, 10 µM HQ461 for 16 hr), the “mRNA levels of BRCA1, BRCA2, ATR and ERCC4” value is reported as “reductions in the mRNA levels of all four tested DDR genes”.
